According to BindingDB's records for doi:10.1021/acsmedchemlett.6b00243 (Amgen, 2016):

Biological target: Sodium channel protein type 5 subunit alpha (Homo sapiens, UniProt Q14524)
Assay: Inhibition of human Nav1.5 expressed in HEK293 cells assessed as inhibition of sodium current at holding potential of -125 mV measured for 3 to 5 mins by whole cell voltage clamp method

Sodium channel protein type 5 subunit alpha, sequence (Q14524 whole entry): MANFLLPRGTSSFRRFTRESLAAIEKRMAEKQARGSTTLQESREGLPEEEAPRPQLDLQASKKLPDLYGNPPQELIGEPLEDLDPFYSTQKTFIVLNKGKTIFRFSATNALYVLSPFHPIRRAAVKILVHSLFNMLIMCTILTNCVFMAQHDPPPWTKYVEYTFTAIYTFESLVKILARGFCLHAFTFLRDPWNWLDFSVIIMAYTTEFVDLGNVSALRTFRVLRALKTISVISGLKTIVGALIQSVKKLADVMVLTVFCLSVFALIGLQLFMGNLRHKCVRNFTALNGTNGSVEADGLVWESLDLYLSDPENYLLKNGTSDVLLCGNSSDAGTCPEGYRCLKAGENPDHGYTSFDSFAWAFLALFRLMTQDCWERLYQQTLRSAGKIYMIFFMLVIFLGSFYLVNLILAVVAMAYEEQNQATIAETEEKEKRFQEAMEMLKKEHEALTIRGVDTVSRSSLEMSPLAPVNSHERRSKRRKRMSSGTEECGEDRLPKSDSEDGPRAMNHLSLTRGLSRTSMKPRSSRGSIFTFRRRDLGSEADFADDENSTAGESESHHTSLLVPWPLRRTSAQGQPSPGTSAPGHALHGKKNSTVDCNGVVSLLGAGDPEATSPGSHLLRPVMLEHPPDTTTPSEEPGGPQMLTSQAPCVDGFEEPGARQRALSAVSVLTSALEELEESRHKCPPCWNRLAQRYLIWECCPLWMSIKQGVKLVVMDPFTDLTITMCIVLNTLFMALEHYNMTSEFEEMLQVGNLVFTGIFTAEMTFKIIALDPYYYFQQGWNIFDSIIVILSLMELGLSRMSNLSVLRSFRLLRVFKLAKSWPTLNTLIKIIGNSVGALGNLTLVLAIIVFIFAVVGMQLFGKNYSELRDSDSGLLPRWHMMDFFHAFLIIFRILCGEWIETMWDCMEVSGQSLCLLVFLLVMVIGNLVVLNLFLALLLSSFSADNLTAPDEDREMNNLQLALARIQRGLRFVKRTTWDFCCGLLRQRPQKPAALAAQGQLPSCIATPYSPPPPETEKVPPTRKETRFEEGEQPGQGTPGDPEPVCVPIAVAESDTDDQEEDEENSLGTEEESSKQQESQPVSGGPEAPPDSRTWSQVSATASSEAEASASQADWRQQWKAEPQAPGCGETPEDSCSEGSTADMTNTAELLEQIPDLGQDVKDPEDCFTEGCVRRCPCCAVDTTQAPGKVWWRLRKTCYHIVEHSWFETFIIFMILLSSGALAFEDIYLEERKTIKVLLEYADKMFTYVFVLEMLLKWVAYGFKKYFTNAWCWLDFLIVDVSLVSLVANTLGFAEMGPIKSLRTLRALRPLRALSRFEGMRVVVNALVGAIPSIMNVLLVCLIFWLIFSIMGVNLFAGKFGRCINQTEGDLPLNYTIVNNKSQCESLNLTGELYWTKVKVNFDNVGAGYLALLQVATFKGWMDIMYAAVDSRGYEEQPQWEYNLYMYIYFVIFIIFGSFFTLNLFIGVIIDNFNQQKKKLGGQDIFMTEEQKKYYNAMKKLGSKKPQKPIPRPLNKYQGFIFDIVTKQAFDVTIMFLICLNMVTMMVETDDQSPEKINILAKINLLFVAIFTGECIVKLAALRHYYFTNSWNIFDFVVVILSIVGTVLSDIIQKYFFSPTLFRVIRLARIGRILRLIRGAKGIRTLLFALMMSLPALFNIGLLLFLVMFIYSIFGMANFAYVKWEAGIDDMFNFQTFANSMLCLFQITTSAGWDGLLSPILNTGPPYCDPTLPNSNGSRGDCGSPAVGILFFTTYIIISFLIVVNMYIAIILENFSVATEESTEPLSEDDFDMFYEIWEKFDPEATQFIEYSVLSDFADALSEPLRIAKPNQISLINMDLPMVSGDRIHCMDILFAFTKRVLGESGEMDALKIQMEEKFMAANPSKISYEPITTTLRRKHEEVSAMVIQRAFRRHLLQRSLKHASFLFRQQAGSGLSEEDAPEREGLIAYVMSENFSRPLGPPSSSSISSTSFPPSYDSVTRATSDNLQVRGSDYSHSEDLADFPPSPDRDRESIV

Structure (SMILES)	IC50 [µM]
COc1cc(C(F)(F)F)ccc1-c1cnnc2cc(S(=O)(=O)Nc3nccs3)ccc12 [US9012443, 259]	> 30
COc1cc(C(F)(F)F)ccc1-c1n[nH]c(=O)c2cc(S(=O)(=O)Nc3nccs3)ccc12 [US9012443, 293]	> 30
